Results reported in article doi:10.1101/2022.06.06.494947v1 (biorxiv, 2022).

Target: His-mASPDH (mouse ASPDH) (Mus musculus, UniProt Q9DCQ2)
Assay: ITC, one-site model
Type: binding

His-mASPDH (mouse ASPDH), sequence (Q9DCQ2 whole entry): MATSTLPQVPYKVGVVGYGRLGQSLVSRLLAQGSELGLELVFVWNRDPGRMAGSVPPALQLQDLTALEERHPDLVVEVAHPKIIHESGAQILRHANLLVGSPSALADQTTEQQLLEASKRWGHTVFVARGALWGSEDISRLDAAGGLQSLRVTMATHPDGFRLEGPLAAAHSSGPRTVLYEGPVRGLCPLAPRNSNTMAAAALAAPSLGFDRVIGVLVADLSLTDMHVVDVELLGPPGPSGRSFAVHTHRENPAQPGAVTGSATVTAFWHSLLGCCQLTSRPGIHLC

Kd [µM] | SMILES
0.455 ± 0.231 | Nc1ncnc2c1ncn2[C@@H]1O[C@H](COP(=O)(O)OP(=O)(O)OC[C@H]2O[C@@H]([n+]3cccc(C(=O)O)c3)[C@H](O)[C@@H]2O)[C@@H](O)[C@H]1OP(=O)(O)O [NAADP]
0.958 ± 0.203 | NC(=O)c1ccc[n+]([C@@H]2O[C@H](COP(=O)(O)OP(=O)(O)OC[C@H]3O[C@@H](n4cnc5c(N)ncnc54)[C@H](OP(=O)(O)O)[C@@H]3O)[C@@H](O)[C@H]2O)c1 [NADP]
